What was measured:
[1] = tested on: MCF10A BRCA1-het #1 and #2 clones vs control; assay: Sensitivity of BRCA1-proficient and -deficient isogenic clones; type: cell-based, human; conditions: FIG. 3A
Procedure: (§1) Cells were plated and treated with the indicated drugs in 96-well plates for 5 days. Cell viability was measured using CellTiter 96 AQueous one solution (MTS) cell proliferation assay purchased from Promega, and IC50 values were calculated using GraphPad Prism 6 Software.
(§2) The finding that COMPOUND I produced DNA damage led to the investigation of whether cells deficient in homologous recombination were hypersensitive to this drug. The hypothesis that there would be synthetic lethality between COMPOUND I and BRCA1 deficiency using isogenic pairs of BRCA1-proficient and -deficient human cell lines was tested. […] The conclusion that BRCA1-deficient cells are hypersensitive to COMPOUND I was further supported by the results obtained in MCF7 E7 cells in which BRCA1 expression is stably knocked down by the expression of an shRNAi. […] Whether BRCA2-deficient cells are more sensitive to COMPOUND I was tested using the BRCA2-proficient and BRCA2-deficient ovarian cancer cell lines, PEO4 and PEO1, respectively. PEO1 is BRCA2-deficient and sensitive to cisplatin and a poly(ADP-ribose) polymerase inhibitor AG14361. PEO4 was derived from ascites at the time of relapse with cisplatin resistance and contains a secondary mutation that restores BRCA2 function. […] Thus, loss of either BRCA1 or BRCA2 function renders malignant cells hypersensitive to COMPOUND I.

[2] = tested on: hTERT-IMEC BRCA1 knock-in clone; assay: as above; type: cell-based, human; conditions: FIG. 3B
Procedure: as §1, §2

[3] = animals; cited from earlier work
HL-60 = assay: Cytotoxicity study (MTS), 5 days; type: cell-based; conditions: Homo sapiens, AML
Procedure: (§3) EOL-1, GRANTA-519, Jeko-1, Jurkat, Molm-13, NOMO-1, SKM-1, and SU-DHL-6 were obtained from Leibniz-Institut DSMZ. HL-60, KG-1, Mino, MV4-11, Raji, and THP-1 were obtained from ATCC. HEL92.1.7 were obtained from the European Collection of Authenticated Cell Cultures and Ramos cells were a gift from Dr. M. Andreeff (MD Anderson Cancer Center, Houston, Tex.). All cells were cultured in complete media as per the manufacturer's instructions. Early passage cells were collected and frozen within 1 month of receipt from the manufacturer. All experiments were performed on early passage cells within 6 weeks of thawing. MycoScope Mycoplasma Detection Kit (Genlantis catalog #MY01050) was used to screen for potential contamination every 6 months. Peripheral blood mononuclear cells (PBMC) were isolated from fresh healthy donor blood using Ficoll-Paque PLUS (GE Healthcare, catalog #17-1440-02). For synthesis of COMPOUND I free base, 10-phenanthroline-5,6-dione (1.2 equivalents), acetic acid (22 volumes), 2-methyl-5-fluoroindole-3-carboxaldehyde (1.0 equivalents), and ammonium acetate (15 equivalents) were reacted under medium agitation while heated at 95±5° C. for 3 to 7 hours. The reaction was cooled to between 20° C. and 25° C., filtered, rinsed with acetic acid and ethanol, and dried with N2 purge, followed by a wash with 2:1 ethanol:water at 65° C. for 4 hours, cooling to 20° C. to 25° C., filtration, rinsing with 2:1 ethanol:water and EtOAc, and then dried with N2 purge. The purity by HPLC was 99.5%, and the structural identity was confirmed by FT-IR, ^1HNMR, ^13C NMR, and LC/MS. For Fe(COMPOUND I)3 synthesis, five molar equivalents of ferrous ion FeSO4 in water was added to COMPOUND I dissolved in ethanol. The deep red precipitate produced, Fe(COMPOUND I)3, was collected and dissolved in DMSO and characterized by HPLC and mass spectrometry as >95% pure. CX-5461 (7) was purchased from MedChem Express (catalog #HY-13323).
(§4) Cells were plated and treated with vehicle DMSO or COMPOUND I (10 concentrations) in 96-well plates for 5 days at 37° C. and 5% CO2. Cell viability was measured using CellTiter 96 AQueous one solution (MTS) cell proliferation assay (Promega, catalog #G3581), and IC50 values were calculated using GraphPad Prism 7 software.

HEL92.1.7 = assay: Cytotoxicity study (MTS), 5 days; type: cell-based; conditions: Homo sapiens, HEL 92.1.7; AML
Procedure: as §3, §4

THP1 = assay: Cytotoxicity study (MTS), 5 days; type: cell-based; conditions: Homo sapiens, THP-1; AML
Procedure: as §3, §4

Ramos = assay: Cytotoxicity study (MTS), 5 days; type: cell-based; conditions: Homo sapiens, Burkitt's
Procedure: as §3, §4

GRANTA-519 = assay: Cytotoxicity study (MTS), 5 days; type: cell-based; conditions: Homo sapiens, MCL
Procedure: as §3, §4

EOL-1 = assay: Cytotoxicity study (MTS), 5 days; type: cell-based; conditions: Homo sapiens, EOL1; AML
Procedure: as §3, §4

Jeko-1 = assay: Cytotoxicity study (MTS), 5 days; type: cell-based; conditions: Homo sapiens, MCL
Procedure: as §3, §4

KG-1 = assay: Cytotoxicity study (MTS), 5 days; type: cell-based; conditions: Homo sapiens, AML
Procedure: as §3, §4

SUDHL-6 = assay: Cytotoxicity study (MTS), 5 days; type: cell-based; conditions: Homo sapiens, SU-DHL-6; DLBCL
Procedure: as §3, §4

Nomo-1 = assay: Cytotoxicity study (MTS), 5 days; type: cell-based; conditions: Homo sapiens, AML
Procedure: as §3, §4

Raji = assay: Cytotoxicity study (MTS), 5 days; type: cell-based; conditions: Homo sapiens, Burkitt's
Procedure: as §3, §4

Jurkat = assay: Cytotoxicity study (MTS), 5 days; type: cell-based; conditions: Homo sapiens, T-ALL
Procedure: as §3, §4

Mino = assay: Cytotoxicity study (MTS), 5 days; type: cell-based; conditions: Homo sapiens, MCL
Procedure: as §3, §4

For Cc1[nH]c2ccc(F)cc2c1-c1nc2c3cccnc3c3ncccc3c2[nH]1 [COMPOUND I, 2-(5-fluoro-2-methyl-1H-indol-3-yl)-1H-imidazo[4,5-f][1,10]phenanthroline], the “sensitivity of BRCA1-het knockin clones vs control” value [1] is given as “even more hypersensitive”, the “sensitivity of BRCA1 2-bp knock-in clone” value [2] is given as “hypersensitive to both olaparib and COMPOUND I” and the myelosuppression [3] is given as “did not produce myelosuppression”. For the same compound, the IC50 (HL-60) was 0.46 µM, the IC50 (HEL92.1.7) was 1.75 µM and the IC50 (THP1) was 0.34 µM. For the same compound, the IC50 (Ramos) was 0.35 µM, the IC50 (GRANTA-519) was 0.082 µM and the IC50 (EOL-1) was 0.3 µM. It also gave an IC50 (Jeko-1) of 0.057 µM, an IC50 (KG-1) of 0.51 µM and an IC50 (SUDHL-6) of 0.51 µM. It also gave an IC50 (Nomo-1) of 1.45 µM, an IC50 (Raji) of 0.1 µM and an IC50 (Jurkat) of 0.52 µM. The IC50 (Mino) was 0.23 µM.
